Test system: CN0375-F725-PDC KRAS spheroid viability
Experiment: Anticancer human tumor CN0375-F725-PDC patient-derived colon carcinoma cell line growth inhibition [KRAS2]
Conditions: spheroids with HUVEC and MSC; for IC50: curve of first compound; for viability, T/C: stronger effect = lower value
Procedure, shortened: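 Combination screen of spheroid viability in tumor-cell co-cultures with endothelial (HUVEC) and mesenchymal stem cell stroma. Each agent was tested in half-log dilutions, topping at clinical Cmax or at 10 microM without a known Cmax.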

[1] = second compound 0.1 µM, first compound 0.0316 µM
[2] = second compound 0.1 µM, first compound 0.1 µM
[3] = second compound 0.1 µM, first compound 0.316 µM
[4] = second compound 0.1 µM, first compound 1 µM
[5] = second compound 0.1 µM, first compound 3.16 µM
[6] = second compound 0.1 µM, first compound 10 µM
[7] = second compound 0.316 µM, first compound 0.0316 µM
[8] = second compound 0.316 µM, first compound 0.1 µM
[9] = second compound 0.316 µM, first compound 0.316 µM
[10] = second compound 0.316 µM, first compound 1 µM
[11] = second compound 0.316 µM, first compound 3.16 µM
[12] = second compound 0.316 µM, first compound 10 µM
[13] = second compound 1 µM, first compound 0.0316 µM
[14] = second compound 1 µM, first compound 0.1 µM
[15] = second compound 1 µM, first compound 0.316 µM
[16] = second compound 1 µM, first compound 1 µM
[17] = second compound 1 µM, first compound 3.16 µM
[18] = second compound 1 µM, first compound 10 µM
[19] = second compound 3.16 µM, first compound 0.0316 µM
[20] = second compound 3.16 µM, first compound 0.1 µM
[21] = second compound 3.16 µM, first compound 0.316 µM
[22] = second compound 3.16 µM, first compound 1 µM
[23] = second compound 3.16 µM, first compound 3.16 µM
[24] = second compound 3.16 µM, first compound 10 µM
[25] = second compound 10 µM, first compound 0.0316 µM
[26] = second compound 10 µM, first compound 0.1 µM
[27] = second compound 10 µM, first compound 0.316 µM
[28] = second compound 10 µM, first compound 1 µM
[29] = second compound 10 µM, first compound 3.16 µM
[30] = second compound 10 µM, first compound 10 µM
[31] = second compound 0.1 µM, first compound 0.01 µM
[32] = second compound 0.316 µM, first compound 0.01 µM
[33] = second compound 1 µM, first compound 0.01 µM
[34] = second compound 3.16 µM, first compound 0.01 µM
[35] = second compound 10 µM, first compound 0.01 µM
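Further: spheroids exposed to agents for 7 days.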

SMILES	IC50 (second compound 0.1 µM) [µM]	IC50 (second compound 0.316 µM) [µM]	IC50 (second compound 1 µM) [µM]	IC50 (second compound 3.16 µM) [µM]	IC50 (second compound 10 µM) [µM]	viability, T/C [1] [%]	viability, T/C [2] [%]	viability, T/C [3] [%]	viability, T/C [4] [%]	viability, T/C [7] [%]	viability, T/C [8] [%]	viability, T/C [9] [%]	viability, T/C [10] [%]	viability, T/C [13] [%]	viability, T/C [14] [%]	viability, T/C [15] [%]	viability, T/C [16] [%]	viability, T/C [19] [%]	viability, T/C [20] [%]	viability, T/C [21] [%]	also measured
CC(C)NCC(C(=O)N1CCN(c2ncnc3c2C(C)CC3O)CC1)c1ccc(Cl)cc1 (stereo not given) + CC1OCC2(CCN(c3cnc(Sc4ccnc(N)c4Cl)c(N)n3)CC2)C1N	> 10	> 10	> 10	> 10	5.95	100	95.9	94.4	88.7	93.6	93.5	89.9	82	90.5	88.7	84.3	74.8	87.4	83.9	76.5	viability, T/C [5]: 87.7%; viability, T/C [6]: 71.7%; viability, T/C [11]: 81.6%; viability, T/C [12]: 70.8%; viability, T/C [17]: 75.9%; viability, T/C [18]: 66.2%; viability, T/C [22]: 70.3%; viability, T/C [23]: 63.2%; viability, T/C [24]: 56.5%; viability, T/C [25]: 71.3%; viability, T/C [26]: 68.3%; viability, T/C [27]: 62.3%; viability, T/C [28]: 54.9%; viability, T/C [29]: 56.4%; viability, T/C [30]: 46.3%
CC1COCCN1c1cc(-c2ccnn2C)c2ccnc(-c3ccn[nH]3)c2n1 (stereo not given) + CC1OCC2(CCN(c3cnc(Sc4ccnc(N)c4Cl)c(N)n3)CC2)C1N	> 3.16	> 3.16	> 3.16	1.76	0.614	91.7	84.1	77.1	67.5	92.8	74.3	72.9	65.1	82.7	73.3	70.7	62.1	76.8	68.3	59.3	viability, T/C [31]: 107%; viability, T/C [5]: 56.2%; viability, T/C [32]: 90.7%; viability, T/C [11]: 51.3%; viability, T/C [33]: 88.2%; viability, T/C [17]: 48.6%; viability, T/C [34]: 81.4%; viability, T/C [22]: 54.2%; viability, T/C [23]: 46.4%; viability, T/C [35]: 69.7%; viability, T/C [25]: 74.8%; viability, T/C [26]: 62.5%; viability, T/C [27]: 53.2%; viability, T/C [28]: 49.2%; viability, T/C [29]: 39.6%
CCN1CCN(Cc2ccc(Nc3ncc(F)c(-c4cc(F)c5nc(C)n(C(C)C)c5c4)n3)nc2)CC1 + CC1OCC2(CCN(c3cnc(Sc4ccnc(N)c4Cl)c(N)n3)CC2)C1N	> 1	> 1	> 1	> 1	> 1	81.4	88.2	95.7	92.8	67.3	74.6	89.3	84.9	72.6	75.2	82.9	81.7	68.1	66.6	75.1	viability, T/C (second compound 0.1 µM, first compound 0.00316 µM): 92.9%; viability, T/C [31]: 83.3%; viability, T/C (second compound 0.316 µM, first compound 0.00316 µM): 84.9%; viability, T/C [32]: 82.2%; viability, T/C (second compound 1 µM, first compound 0.00316 µM): 82.3%; viability, T/C [33]: 80%; viability, T/C (second compound 3.16 µM, first compound 0.00316 µM): 72.2%; viability, T/C [34]: 74.8%; viability, T/C [22]: 68.8%; viability, T/C (second compound 10 µM, first compound 0.00316 µM): 65.8%; viability, T/C [35]: 69.3%; viability, T/C [25]: 60.4%; viability, T/C [26]: 61.1%; viability, T/C [27]: 70.4%; viability, T/C [28]: 53.3%
CCNC(=O)CC1N=C(c2ccc(Cl)cc2)c2cc(OC)ccc2-n2c(C)nnc21 (stereo not given) + CC1OCC2(CCN(c3cnc(Sc4ccnc(N)c4Cl)c(N)n3)CC2)C1N	7.51	4.63	3.69	2.61	1.46	92.8	88.3	79.4	72.6	88	78.9	68.5	69.7	85.2	78.2	70.5	66.5	79.4	73.6	62.2	viability, T/C [5]: 60.8%; viability, T/C [6]: 46.1%; viability, T/C [11]: 58.8%; viability, T/C [12]: 37.3%; viability, T/C [17]: 51.6%; viability, T/C [18]: 37%; viability, T/C [22]: 61.9%; viability, T/C [23]: 48.3%; viability, T/C [24]: 36.8%; viability, T/C [25]: 72.3%; viability, T/C [26]: 73.8%; viability, T/C [27]: 60.7%; viability, T/C [28]: 53%; viability, T/C [29]: 45%; viability, T/C [30]: 36.9%

— PubChem BioAssay AID1963860 (Molecular Pharmacology Branch, DTP, NCI, 2024)
